According to patent US20080206181A1, “Hair treatment compositions containing sophora alkaloids” (Conopco Inc, d/b/a UNILEVER, priority 2007, published 2008):
Marks after values point to notes of the source that are not given here.

Key:
[1] = Differential scanning calorimetry (DSC) of bleach-damaged hair fibres; details: for Average Denaturation Temperature Td / Sub From damaged (Td increase over damaged hair): bleached hair immersed in 1% aqueous solution at pH 5.5 for 1 hour; for Repair of damage caused by bleaching hair fibre (in words): summary of Table 2
Method: To prepare damaged hair fibre, European hair fibres were bleached with L' Oreal Platifiz precision powder and Oxydant crème (1:1.5) for 30 min, rinsed completely with running tap water and naturally dried overnight before the next application. These hair fibres were immersed in a 1% aqueous solution of test material (matrine or oxymatrine respectively) and water (as a control) at pH 5.5 (adjusted with HCl and NaOH) for 1 hour respectively, rinsed with distilled water for 30 sec and naturally dried overnight and then they were cut into ˜2 mm lengths with scissors.
For the DSC investigation a Mettler Toledo DSC823e analyser was used. About 6 mg of sample was weighed into a pressure resistant (20 bar), stainless steel, large volume pan (120 μl capacity). 50 μl of water was added and the pan was sealed. Samples were then mixed using a rotary mixer and left overnight to allow the water to equilibrate throughout the sample. Samples were run through a temperature programme of […] at a rate of 10° C./min in 30 ml/min nitrogen atmosphere. The helix transition temperature was collected and analyzed with one-way ANOVA. Each sample was carried out three times.

[2] = Protein leaching from hair fibres (BCA protein assay kit); details: for Protein leaching from hair fibres, Average: 1% test material + 2% SDS, pH about 6.0, 10 mg hair fibres, 37° C., 24 h; for Effect on protein leaching induced by SDS (in words): summary of Table 1
Method: Protein leaching assays were conducted in order to find out the protective effect of test materials on protein leaching from hair.
Chinese hair fibres from the same head were washed with shampoo and air dried. Then they were immersed in ether for 2 min to remove lipid components and rinsed with running water and air. The hair fibres were cut into ˜2 mm length with scissors.
A 200 μL solution consisting of 1% test material (matrine or oxymatrine respectively) and 2% sodium dodecyl sulphate (SDS), where pH was adjusted to about 6.0 with citric acid, was incubated with 10 mg hair fibres at 37° C. for 24 h.
Protein leaching from the treated hair fibres was determined with a BCA protein assay kit.
The data were collected and analysed with One-Way ANOVA by using SPSS software. LSD was used when variances were equal, and Tamhane's T2 was used when variances were not equal.

Structure (SMILES) | Average Denaturation Temperature Td ([1]; 1st run) | Sub From damaged (Td increase over damaged hair) ([1]; 1st run) [°C] | Average Denaturation Temperature Td ([1]; 1st run, listed as oxymatrine) [°C] | Average Denaturation Temperature Td ([1]; 2nd run) | Sub From damaged (Td increase over damaged hair) ([1]; 2nd run) | Repair of damage caused by bleaching hair fibre (in words) [1] | Protein leaching from hair fibres, Average ([2]; 1st Run) | Protein leaching from hair fibres, Average ([2]; 2nd Run) | Effect on protein leaching induced by SDS (in words) [2] | Average Denaturation Temperature Td ([1]; 1st run, listed as matrine) [°C]
O=C1CCC[C@@H]2[C@H]3CCC[N+]4([O-])CCC[C@@H](CN12)[C@@H]34 (single isomer, unassigned; (+)) [Oxymatrine, (+)-oxymatrine] | 152.24** ° C. | 9.68 | 152.24 | 150.67** ° C. | 7.49 | fully repair the damage | 0.854** μg/mg | 1.035** μg/mg | reduce protein leaching | 
O=C(O)CC(O)(CC(=O)O)C(=O)O [Citric acid] |  |  |  |  |  |  |  | 1.121 µg/mg |  | 
O=C1CCC[C@@H]2[C@H]3CCCN4CCC[C@@H](CN12)[C@@H]34 [Matrine, (+)-matrine] | 148.00** ° C. | 5.43 |  | 148.07** ° C. | 4.89 | fully repair the damage | 0.792** μg/mg | 1.105* μg/mg | reduce protein leaching | 148
